Assay results reported in US20260116889A1, “MACROCYCLIC PYRIMIDINE DERIVATIVE, METHOD FOR PREPARING SAME, AND PHARMACEUTICAL COMPOSITION FOR PREVENTION OR TREATMENT OF NEURODEGENERATIVE DISEASE CONTAINING SAME AS ACTIVE INGREDIENT” (WHAN IN PHARMACEUTICAL CO., LTD., priority 2021, published 2026).

Columns and labels:
[1] = target: T1, wild type LRRK2 (leucine-rich repeat kinase 2) (Homo sapiens, UniProt Q5S007); experiment: HotSpot radiometric kinase assay (Reaction Biology), LRRK2 wild type inhibitory activity; type: biochemical; conditions: 10 μM ATP, 25° C., 120 min
T1 construct: purchased Reaction Biology Corporation
T1 sequence (Q5S007 whole entry): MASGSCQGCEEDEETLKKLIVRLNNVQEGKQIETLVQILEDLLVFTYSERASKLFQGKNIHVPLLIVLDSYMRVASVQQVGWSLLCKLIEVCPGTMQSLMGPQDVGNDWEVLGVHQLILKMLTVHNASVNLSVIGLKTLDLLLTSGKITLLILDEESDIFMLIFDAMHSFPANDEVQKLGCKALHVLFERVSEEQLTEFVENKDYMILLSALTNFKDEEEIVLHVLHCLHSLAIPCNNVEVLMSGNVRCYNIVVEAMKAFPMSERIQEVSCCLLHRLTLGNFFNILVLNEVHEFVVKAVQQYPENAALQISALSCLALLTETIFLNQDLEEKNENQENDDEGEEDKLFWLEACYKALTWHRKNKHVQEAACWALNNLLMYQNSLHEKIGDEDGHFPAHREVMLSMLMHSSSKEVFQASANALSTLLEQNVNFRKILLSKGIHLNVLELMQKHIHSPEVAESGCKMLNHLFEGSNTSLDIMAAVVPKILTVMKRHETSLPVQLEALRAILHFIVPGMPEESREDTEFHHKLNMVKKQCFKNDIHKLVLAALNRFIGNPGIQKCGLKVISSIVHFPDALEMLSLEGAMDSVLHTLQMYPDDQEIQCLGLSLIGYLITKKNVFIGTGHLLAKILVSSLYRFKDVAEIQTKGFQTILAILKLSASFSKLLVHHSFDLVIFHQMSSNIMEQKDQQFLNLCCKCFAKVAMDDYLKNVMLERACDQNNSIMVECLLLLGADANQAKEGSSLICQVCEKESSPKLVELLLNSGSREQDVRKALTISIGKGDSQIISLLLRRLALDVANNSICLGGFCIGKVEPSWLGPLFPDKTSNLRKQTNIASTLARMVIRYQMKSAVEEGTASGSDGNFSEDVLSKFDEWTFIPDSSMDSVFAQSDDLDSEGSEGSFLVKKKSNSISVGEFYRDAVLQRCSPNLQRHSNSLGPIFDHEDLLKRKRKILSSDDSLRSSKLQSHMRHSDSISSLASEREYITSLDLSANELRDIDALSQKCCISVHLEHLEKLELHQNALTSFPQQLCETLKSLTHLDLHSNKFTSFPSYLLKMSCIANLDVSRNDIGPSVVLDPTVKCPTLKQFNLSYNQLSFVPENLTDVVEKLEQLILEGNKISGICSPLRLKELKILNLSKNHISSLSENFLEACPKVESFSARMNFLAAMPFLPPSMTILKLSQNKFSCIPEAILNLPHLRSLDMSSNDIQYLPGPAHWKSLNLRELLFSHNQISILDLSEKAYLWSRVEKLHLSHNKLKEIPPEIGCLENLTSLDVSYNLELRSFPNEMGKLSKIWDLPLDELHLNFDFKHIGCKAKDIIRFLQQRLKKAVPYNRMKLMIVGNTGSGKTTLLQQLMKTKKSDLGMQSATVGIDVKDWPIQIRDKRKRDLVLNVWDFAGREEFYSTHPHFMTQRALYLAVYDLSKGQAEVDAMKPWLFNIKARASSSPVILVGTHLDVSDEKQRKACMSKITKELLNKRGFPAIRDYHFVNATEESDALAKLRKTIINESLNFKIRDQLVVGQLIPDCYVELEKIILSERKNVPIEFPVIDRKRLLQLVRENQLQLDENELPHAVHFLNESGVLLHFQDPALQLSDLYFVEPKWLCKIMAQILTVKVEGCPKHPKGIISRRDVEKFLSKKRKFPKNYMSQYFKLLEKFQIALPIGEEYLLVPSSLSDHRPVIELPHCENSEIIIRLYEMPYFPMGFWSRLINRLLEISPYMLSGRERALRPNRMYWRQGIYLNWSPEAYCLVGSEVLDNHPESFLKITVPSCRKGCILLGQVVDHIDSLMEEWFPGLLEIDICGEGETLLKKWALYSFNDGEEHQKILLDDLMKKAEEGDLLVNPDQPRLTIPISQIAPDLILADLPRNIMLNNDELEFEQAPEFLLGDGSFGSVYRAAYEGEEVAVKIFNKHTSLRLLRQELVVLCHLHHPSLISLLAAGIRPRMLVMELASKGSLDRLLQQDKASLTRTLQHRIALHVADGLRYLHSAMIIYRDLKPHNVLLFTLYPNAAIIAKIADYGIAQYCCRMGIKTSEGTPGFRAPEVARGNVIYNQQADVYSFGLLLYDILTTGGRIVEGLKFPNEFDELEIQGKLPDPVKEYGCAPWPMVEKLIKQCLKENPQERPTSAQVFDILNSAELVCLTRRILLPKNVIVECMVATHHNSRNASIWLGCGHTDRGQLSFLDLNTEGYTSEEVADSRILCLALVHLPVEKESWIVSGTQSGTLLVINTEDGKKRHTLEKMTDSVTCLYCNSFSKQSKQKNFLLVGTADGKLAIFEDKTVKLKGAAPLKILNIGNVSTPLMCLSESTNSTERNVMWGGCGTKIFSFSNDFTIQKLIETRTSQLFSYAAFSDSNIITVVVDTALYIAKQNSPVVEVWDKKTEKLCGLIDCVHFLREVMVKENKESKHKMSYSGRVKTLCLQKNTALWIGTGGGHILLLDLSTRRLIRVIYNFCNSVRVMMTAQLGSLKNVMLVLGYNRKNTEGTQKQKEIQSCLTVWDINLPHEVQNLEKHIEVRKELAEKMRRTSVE
Method: (§1) The experimental method was as follows.
(§2) Specific kinase/substrate pairs were prepared in reaction buffer (20 mM Hepes pH 7.5, 10 mM MgCl2, 1 mM EGTA, 0.02% Brij35, 0.02 mg/ml BSA, 0.1 mM Na3VO4, 2 mM DTT, 1% DMSO) along with the required cofactors. The compounds were transferred to the reaction, and after 20 min, a mixture of ATP (Sigma) and ^33P ATP (PerkinElmer) was added to a final concentration of 10 μM. The reaction was carried out at 25° C. for 120 min and then dropped onto P81 ion exchange filter paper (Whatman). […] IC50 values were obtained using Prism (GraphPad Software).

[2] = target: T2, G2019S mutant of LRRK2 (leucine-rich repeat kinase 2) (Homo sapiens, UniProt Q5S007, G2019S); experiment: HotSpot radiometric kinase assay (Reaction Biology), LRRK2 G2019S mutant inhibitory activity; type: biochemical; conditions: 10 μM ATP, 25° C., 120 min
T2 construct: purchased Reaction Biology Corporation
T2 sequence (Q5S007 whole entry G2019S): as the sequence (Q5S007 whole entry) above, with G2019S counted along it
Method: as §1, §2

Compound CN1CCNc2nc(ncc2Cl)Nc2cccc(c2)C1=O [Example 2, 1^5-chloro-5-methyl-2,5,8-triaza-1 (2,4)-pyrimidina-3 (1,3)-benzenacyclooctaphane-4-one] has an IC50 [1] of 17 nM and an IC50 [2] of 19.3 nM.
In the case of O=C1NCCCCNc2nc(ncc2Cl)Nc2cccc1c2 [Example 3, 1^5-chloro-2,5,10-triaza-1 (2,4)-pyrimidina-3 (1,3)-benzenacyclodecarphane-4-one], the IC50 [1] is reported as 15.9 nM and the IC50 [2] is reported as 13.1 nM.
COc1ccc2cc1Nc1ncc(F)c(n1)NCCN(C)C2=O [Example 7, 1^5-fluoro-3^6-methoxy-5-methyl-2,5,8-triaza-1 (2,4)-pyrimidina-3 (1,3)-benzenacyclooctaphane-4-one] was tested, and the IC50 [1] was 35.5 nM and the IC50 [2] was 34.1 nM.
Compound COc1ccc2cc1C(=O)N(C)CCNc1nc(ncc1Cl)N2 [Example 9, 1^5-chloro-3^4-methoxy-5-methyl-2,5,8-triaza-1 (2,4)-pyrimidina-3 (1,3)-benzenacyclooctaphane-4-one;2,2,2-trifluoroacetate] has an IC50 [1] of 91.1 nM and an IC50 [2] of 79.7 nM.
With COc1ccc2cc1C(=O)N(C)CCCCNc1nc(ncc1Cl)N2 [Example 18, 1^5-chloro-3^4-methoxy-5-methyl-2,5,10-triaza-1 (2,4)-pyrimidina-3 (1,3)-benzenacyclodecarphane-4-one;2,2,2-trifluoroacetate] the IC50 [1] was 142 nM and the IC50 [2] was 145 nM.
For CCc1ccc2cc1Nc1ncc(Cl)c(n1)NCCCCN(C)C2=O [Example 19, 1^5-chloro-3^6-ethyl-5-methyl-2,5,10-triaza-1 (2,4)-pyrimidina-3 (1,3)-benzenacyclodecarphane-4-one;2,2,2-trifluoroacetate], the IC50 [1] was 13.4 nM and the IC50 [2] was 6.86 nM.
In the case of COc1ccc2cc1Nc1ncc(Cl)c(n1)N(C)CCN(C)C2=O [Example 20, 1^5-chloro-3^6-methoxy-5,8-dimethyl-2,5,8-triaza-1 (2,4)-pyrimidina-3 (1,3)-benzenacyclooctaphane-4-one;2,2,2-trifluoroacetate], the IC50 [1] is reported as 3.44 nM and the IC50 [2] is reported as 3.51 nM.
For CCN1CCNc2nc(ncc2Cl)Nc2cc(ccc2OC)C1=O [Example 21, 1^5-chloro-5-ethyl-3^6-methoxy-2,5,8-triaza-1 (2,4)-pyrimidina-3 (1,3)-benzenacyclooctaphane-4-one;2,2,2-trifluoroacetate], the IC50 [1] was 11.1 nM and the IC50 [2] was 3.09 nM.
With COc1ccc2cc1Nc1ncc(Cl)c(n1)NCCN(C(C)C)C2=O [Example 22, 1^5-chloro-5-isopropyl-3^6-methoxy-2,5,8-triaza-1 (2,4)-pyrimidina-3 (1,3)-benzenacyclooctaphane-4-one] the IC50 [1] was 5.06 nM and the IC50 [2] was 0.98 nM.
COc1ccc2cc1Nc1ncc(Cl)c(n1)N(C)CCCN(C)C2=O [Example 23, 1^5-chloro-3^6-methoxy-5,9-dimethyl-2,5,9-triaza-1 (2,4)-pyrimidina-3 (1,3)-benzenacyclononapane-4-one;2,2,2-trifluoroacetate] was tested, and the IC50 [1] was 0.667 nM and the IC50 [2] was < 0.254 nM.
COc1ccc2cc1Nc1ncc(C(F)(F)F)c(n1)N(C)CCN(C)C2=O [Example 25, 3^6-methoxy-5,8-dimethyl-1^5-(trifluoromethyl)-2,5,8-triaza-1 (2,4)-pyrimidina-3 (1,3)-benzenacyclooctaphane-4-one;2,2,2-trifluoroacetate] showed an IC50 [1] of 62.9 nM and an IC50 [2] of 25.7 nM.
In the case of COc1ccc2cc1Nc1ncc(Cl)c(n1)N(C)CCCCN(C)C2=O [Example 27, 1^5-chloro-3^6-methoxy-5,10-dimethyl-2,5,10-triaza-1 (2,4)-pyrimidina-3 (1,3)-benzenacyclodecarphane-4-one;2,2,2-trifluoroacetate], the IC50 [1] is reported as 5.42 nM and the IC50 [2] is reported as 2 nM.
For COc1ccc2cc1Nc1ncc(C(F)(F)F)c(n1)N(C)CCCCN(C)C2=O [Example 29, 3^6-methoxy-5,10-dimethyl-1^5-(trifluoromethyl)-2,5,10-triaza-1 (2,4)-pyrimidina-3 (1,3)-benzenacyclodecarphane-4-one;2,2,2-trifluoroacetate], the IC50 [1] was 1.79 nM and the IC50 [2] was 0.72 nM.
CN1CCCN(C)c2nc(ncc2C(F)(F)F)Nc2cc(ccc2OC(F)(F)F)C1=O [Example 30, 5,9-dimethyl-3^6-(trifluoromethoxy)-1^5-(trifluoromethyl)-2,5,9-triaza-1 (2,4)-pyrimidina-3 (1,3)-benzenacyclononapane-4-one] was tested, and the IC50 [1] was 1.73 nM and the IC50 [2] was 0.574 nM.
CN1CCCN(C)c2nc(ncc2C(F)(F)F)Nc2cc(ccc2C(F)(F)F)C1=O [Example 31, 5,9-dimethyl-15,36-bis(trifluoromethyl)-2,5,9-triaza-1 (2,4)-pyrimidina-3 (1,3)-benzenacyclononapane-4-one] gave an IC50 [1] of 58.1 nM and an IC50 [2] of 33.4 nM.
Work on CN1CCCNc2nc(ncc2C(F)(F)F)Nc2cc(ccc2OC2COC2)C1=O [Example 38, 5-methyl-3^6-(oxetane-3-yloxy)-1^5-(trifluoromethyl)-2,5,9-triaza-1 (2,4)-pyrimidina-3 (1,3)-benzenacyclonaphane-4-one] yielded an IC50 [1] of 22.2 nM and an IC50 [2] of 46.7 nM.
In the case of CN1CCCNc2nc(ncc2Cl)Nc2cc(ccc2OC(F)(F)F)C1=O [Example 40, 1^5-chloro-5-methyl-3^6-(trifluoromethoxy)-2,5,9-triaza-1 (2,4)-pyrimidina-3 (1,3)-benzenacyclonaphane-4-one], the IC50 [1] is reported as 5.47 nM and the IC50 [2] is reported as 3.81 nM.
CN1CCCNc2nc(ncc2C(F)(F)F)Nc2cc(ccc2OC(F)(F)F)C1=O [Example 41, 5-methyl-36-(trifluoromethoxy)-1^5-(trifluoromethyl)-2,5,9-triaza-1 (2,4)-pyrimidina-3 (1,3)-benzenacyclonaphane-4-one] gave an IC50 [1] of 4.82 nM and an IC50 [2] of 3.08 nM.
With COc1ccc2cc1Nc1ncc(Cl)c(n1)OCCCN(C)C2=O [Example 42, 15-chloro-3^6-methoxy-5-methyl-9-oxa-2,5-diaza-1 (2,4)-pyrimidina-3 (1,3)-benzenacyclonaphane-4-one] the IC50 [1] was 5.91 nM and the IC50 [2] was 5.14 nM.
Work on COc1ccc2cc1Nc1ncc(C(F)(F)F)c(n1)OCCCN(C)C2=O [Example 43, 3^6-methoxy-5-methyl-1^5-(trifluoromethyl)-9-oxa-2,5-diaza-1 (2,4)-pyrimidina-3 (1,3)-benzenacyclonaphane-4-one] yielded an IC50 [1] of 4.87 nM and an IC50 [2] of 2.07 nM.
CN1CCCOc2nc(ncc2C(F)(F)F)Nc2cc(ccc2OC(F)(F)F)C1=O [Example 44, 5-methyl-3^6-(trifluoromethoxy)-1^5-(trifluoromethyl)-9-oxa-2,5-diaza-1 (2,4)-pyrimidina-3 (1,3)-benzenacyclonaphane-4-one] was tested, and the IC50 [1] was 16.2 nM and the IC50 [2] was 10.5 nM.
With COc1c(F)cc2cc1Nc1ncc(C(F)(F)F)c(n1)OCCCN(C)C2=O [Example 45, 3^5-fluoro-3^6-methoxy-5-methyl-1^5-(trifluoromethyl)-9-oxa-2,5-diaza-1 (2,4)-pyrimidina-3 (1,3)-benzenacyclonaphane-4-one] the IC50 [1] was 10.2 nM and the IC50 [2] was 4.8 nM.
Work on CN1CCCNc2nc(ncc2C(F)(F)F)Nc2cc(ccc2OC2CC2)C1=O [Example 46, 36-cyclopropoxy-5-methyl-1^5-(trifluoromethyl)-2,5,9-triaza-1 (2,4)-pyrimidina-3 (1,3)-benzenacyclonaphane-4-one] yielded an IC50 [1] of 6.8 nM and an IC50 [2] of 2.5 nM.
